Like-named read-outs stand apart in the source and are kept apart here.
How the values were obtained:
[1] = test system: 金黄色葡萄球菌SG511; type: cell-based, 金黄色葡萄球菌
[2] = test system: 金黄色葡萄球菌Exp54146; type: cell-based, 金黄色葡萄球菌; conditions: strain Exp54146
[3] = test system: 化脓葡萄球菌A561; type: cell-based, 化脓葡萄球菌; conditions: strain A561
[4] = test system: 屎肠球菌M78L; type: cell-based, 屎肠球菌; conditions: strain M78L
[5] = test system: 大肠杆菌; type: cell-based
[6] = test system: 011HT3; assay: In vitro antibacterial activity, MIC, 18 h; type: cell-based; conditions: incubation time 18h
[7] = test system: 011HT18; assay: In vitro antibacterial activity, MIC, 18 h; type: cell-based; conditions: incubation time 18h; strain 011HT18
[8] = test system: 表皮葡萄球菌 012GO20; assay: In vitro antibacterial activity, MIC, 18 h; type: cell-based; conditions: incubation time 18h; strain 012GO20
[9] = test system: 金黄色葡萄球菌 O11HT1; assay: In vitro antibacterial activity, MIC, 18 h; type: cell-based; conditions: incubation time 18h; strain O11HT1
[10] = test system: 金黄色葡萄球菌 011DU5; assay: In vitro antibacterial activity, MIC, 18 h; type: cell-based; conditions: incubation time 18h; strain 011DU5
[11] = test system: 金黄色葡萄球菌 011CB20; assay: In vitro antibacterial activity, MIC, 18 h; type: cell-based; conditions: incubation time 18h; strain 011CB20
[12] = test system: 金黄色葡萄球菌 0121O64; assay: In vitro antibacterial activity, MIC, 18 h; type: cell-based; conditions: incubation time 18h; strain 0121O64
[13] = test system: 表皮葡萄球菌 012GO42; assay: In vitro antibacterial activity, MIC, 18 h; type: cell-based; conditions: incubation time 18h; strain 012GO42
[14] = test system: Staph.coag.negative012HT5; assay: In vitro antibacterial activity, MIC, 18 h; type: cell-based, Staph.coag.negative; conditions: incubation time 18h; strain 012HT5
[15] = test system: 化脓葡萄球菌 02A1SJ1; assay: In vitro antibacterial activity, MIC, 18 h; type: cell-based; conditions: incubation time 18h; strain 02A1SJ1
[16] = test system: 化脓葡萄球菌 02A1CU1; assay: In vitro antibacterial activity, MIC, 18 h; type: cell-based; conditions: incubation time 18h; strain 02A1CU1
[17] = test system: 化脓葡萄球菌 02A1F16; assay: In vitro antibacterial activity, MIC, 18 h; type: cell-based; conditions: incubation time 18h; strain 02A1F16
[18] = test system: Streptogr G02G0CB2; assay: In vitro antibacterial activity, MIC, 18 h; type: cell-based, Streptogr G; conditions: incubation time 18h; strain 02G0CB2
[19] = test system: S.pnenmoniae 030BI2; assay: In vitro antibacterial activity, MIC, 18 h; type: cell-based; conditions: incubation time 18h; strain 030BI2
[20] = test system: S.milleri 02milGR12; assay: In vitro antibacterial activity, MIC, 18 h; type: cell-based; conditions: incubation time 18h; strain 02milGR12
[21] = test system: S.mitis 02mitGR16; assay: In vitro antibacterial activity, MIC, 18 h; type: cell-based; conditions: incubation time 18h; strain 02mitGR16
[22] = test system: 粪肠球菌 02D2HM9; assay: In vitro antibacterial activity, MIC, 18 h; type: cell-based; conditions: incubation time 18h; strain 02D2HM9
[23] = test system: 粪肠球菌 02D2uC5; assay: In vitro antibacterial activity, MIC, 18 h; type: cell-based; conditions: incubation time 18h; strain 02D2uC5
[24] = test system: 粪肠球茵 02D2DU18; assay: In vitro antibacterial activity, MIC, 18 h; type: cell-based; conditions: incubation time 18h; strain 02D2DU18
[25] = test system: 粪肠球菌 02D2HT10; assay: In vitro antibacterial activity, MIC, 18 h; type: cell-based; conditions: incubation time 18h; strain 02D2HT10
[26] = Solubility (physicochemical properties); conditions: methanol, water
[27] = Stability in solution (physicochemical properties); conditions: neutral / weakly alkaline vs strongly acidic / strongly alkaline media
[28] = Tolerability and toxicity; conditions: at the active concentration and the concentrations mentioned above
[29] = incubation time 24h, strain SG511
[30] = incubation time 24h, strain SG511 + 10% serum
[31] = strain 011HT3 + 50% serum (first such line)
[32] = strain 011HT3 + 50% serum (second such line)
[33] = Boc-derivative table, 接种时间24h, strain SG511
[34] = Boc-derivative table, 接种时间24h, strain SG511 + 10% serum

Substance | MIC [1, 29] | MIC [1, 30] | MIC ([2]; incubation time 24h) | MIC ([3]; incubation time 24h) | MIC ([4]; incubation time 24h) | MIC ([5]; incubation time 24h) | MIC ([6]; strain 011HT3) | MIC [6, 31] | MIC [6, 32] | MIC [7] | MIC [8] | MIC [9] | MIC [10] | MIC [12] | MIC [13] | MIC [14] | MIC [15] | MIC [16] | MIC [17] | MIC [18] | also measured
Gln(0)-阿卡加定 [Gln-Acta] | 20 µg/mL | 40 µg/mL | > 40 µg/mL | 5 µg/mL | 10 µg/mL | > 40 µg/mL | – | – | – | – | – | – | – | – | – | – | – | – | – | – | –
Phe(0)-阿卡加定 [Phe-Acta] | 0.6 µg/mL | 5 µg/mL | 5 µg/mL | > 40 µg/mL | > 40 µg/mL | > 40 µg/mL | – | – | – | – | – | – | – | – | – | – | – | – | – | – | –
Ala(0)-阿卡加定 | 5 µg/mL | 20 µg/mL | 40 µg/mL | ≤ 0.04 µg/mL | 5 µg/mL | > 40 µg/mL | 20 µg/mL | 20 µg/mL | 40 µg/mL | > 40 µg/mL | > 40 µg/mL | 1.1 µg/mL | 40 µg/mL | > 40 µg/mL | > 40 µg/mL | > 40 µg/mL | ≤ 0.04 µg/mL | ≤ 0.04 µg/mL | ≤ 0.04 µg/mL | 20 µg/mL | MIC [11]: > 40 µg/mL; MIC [19]: 2.5 µg/mL; MIC [20]: 40 µg/mL; MIC [21]: 20 µg/mL; MIC [22]: > 40 µg/mL; MIC [23]: 20 µg/mL; MIC [24]: 5 µg/mL; MIC [25]: > 40 µg/mL; Solubility [26]: 溶于甲醇和水; Stability in solution [27]: 于中性和弱碱性介质中稳定，但于强酸性和强碱性溶液中不稳定; Cytotoxicity or other toxicity [28]: 没有发现其细胞毒性或其它的毒性; Tolerability [28]: 耐受性很好
Lys(0)-阿卡加定 [Lys-Acta] | 1.2 µg/mL | 2.5 µg/mL | 10 µg/mL | ≤ 0.04 µg/mL | 5 µg/mL | > 40 µg/mL | 10 µg/mL | 10 µg/mL | 10 µg/mL | > 40 µg/mL | > 40 µg/mL | 0.6 µg/mL | 10 µg/mL | > 40 µg/mL | > 40 µg/mL | > 40 µg/mL | ≤ 0.04 µg/mL | ≤ 0.04 µg/mL | ≤ 0.04 µg/mL | 5 µg/mL | MIC [11]: > 40 µg/mL; MIC [19]: 2.5 µg/mL; MIC [20]: 40 µg/mL; MIC [21]: 10 µg/mL; MIC [22]: > 40 µg/mL; MIC [23]: 40 µg/mL; MIC [24]: 5 µg/mL; MIC [25]: > 40 µg/mL
Boc-Ile(0)-阿卡加定 [Boc-Ile-Acta] | – | – | – | – | – | – | – | – | – | – | – | – | – | – | – | – | – | – | – | – | MIC [1, 33]: 20 µg/mL; MIC [1, 34]: 40 µg/mL; MIC ([2]; Boc-derivative table, 接种时间24h): > 40 µg/mL; MIC ([3]; Boc-derivative table, 接种时间24h): > 40 µg/mL; MIC ([4]; Boc-derivative table, 接种时间24h): > 40 µg/mL; MIC ([5]; Boc-derivative table, 接种时间24h): > 40 µg/mL
Phe-Ala(0)-阿卡加定 [Phe-Ala-Acta] | 5 µg/mL | 10 µg/mL | 20 µg/mL | > 40 µg/mL | 10 µg/mL | > 40 µg/mL | – | – | – | – | – | – | – | – | – | – | – | – | – | – | –
N-Boc-Abu(0)-阿卡加定 [Boc-Abu-Acta] | – | – | – | – | – | – | – | – | – | – | – | – | – | – | – | – | – | – | – | – | MIC [1, 33]: 5 µg/mL; MIC [1, 34]: 10 µg/mL; MIC ([2]; Boc-derivative table, 接种时间24h): > 40 µg/mL; MIC ([3]; Boc-derivative table, 接种时间24h): > 40 µg/mL; MIC ([4]; Boc-derivative table, 接种时间24h): > 40 µg/mL; MIC ([5]; Boc-derivative table, 接种时间24h): > 40 µg/mL
Ile(0)-阿卡加定 [Ile-Acta] | 1.2 µg/mL | 2.5 µg/mL | 2.5 µg/mL | ≤ 0.04 µg/mL | 5 µg/mL | > 40 µg/mL | 2.5 µg/mL | 2.5 µg/mL | 5 µg/mL | > 40 µg/mL | > 40 µg/mL | 1.2 µg/mL | 10 µg/mL | > 40 µg/mL | > 40 µg/mL | > 40 µg/mL | ≤ 0.04 µg/mL | ≤ 0.04 µg/mL | ≤ 0.04 µg/mL | 10 µg/mL | MIC [11]: 40 µg/mL; MIC [19]: 1.2 µg/mL; MIC [20]: > 40 µg/mL; MIC [21]: 10 µg/mL; MIC [22]: 40 µg/mL; MIC [23]: 40 µg/mL; MIC [24]: 5 µg/mL; MIC [25]: > 40 µg/mL
二-Boc-Lys(0)-阿卡加定 [Boc-Lys-Acta] | – | – | – | – | – | – | 10 µg/mL | 20 µg/mL | 40 µg/mL | > 40 µg/mL | > 40 µg/mL | 10 µg/mL | 40 µg/mL | > 40 µg/mL | > 40 µg/mL | > 40 µg/mL | 0.08 µg/mL | ≤ 0.04 µg/mL | ≤ 0.04 µg/mL | 2.5 µg/mL | MIC [1, 33]: 2.5 µg/mL; MIC [1, 34]: 10 µg/mL; MIC ([2]; Boc-derivative table, 接种时间24h): 10 µg/mL; MIC ([3]; Boc-derivative table, 接种时间24h): ≤ 0.04 µg/mL; MIC ([4]; Boc-derivative table, 接种时间24h): 10 µg/mL; MIC ([5]; Boc-derivative table, 接种时间24h): > 40 µg/mL; MIC [19]: 1.2 µg/mL; MIC [20]: 5 µg/mL; MIC [21]: 5 µg/mL; MIC [22]: > 40 µg/mL; MIC [23]: 40 µg/mL; MIC [24]: 10 µg/mL; MIC [25]: > 40 µg/mL

Source: patent CN1221752A, “与阿卡加定相关的新型羊毛硫抗生素及其制备方法和用途” (priority 1997, dated 1999)
